Data taken from US20160324863A1, “TARGETED CANCER TREATMENT BY HSP90 INHIBITORS GANETESPIB AND NVP-AUY922” (SYNTA PHARMACEUTICALS CORP., priority 2014, published 2016).
pIC50: −log10 of the molar value.

Columns and labels:
[1] = system: 647-V bladder cancer cell line; assay: CellTiter-Glo viability assay, 647-V; assay type: cell-based; settings: Homo sapiens, FGFR3 status WT, 72 hours, read-out: Ganetespib IC50
Procedure: (§1) Cellular viability was assessed using the CellTiter-Glo Luminescent Cell Viability Assay (Promega) according to manufacturer protocols. Bladder cancer cell lines were seeded into 96-well plates based on optimal growth rates determined empirically for each line. Twenty-four hours after plating, cells were dosed with graded concentrations of ganetespib for 72 hours. CellTiter-Glo was added (50% v/v) to the cells, and the plates incubated for 10 minutes prior to luminescent detection in a SpectraMax Plus 384 microplate reader (Molecular Devices). Data were normalized to percent of control and IC50 values used to determine the sensitivity of each line. For the comparative analyses with ganetespib and BGJ398, RT112 cells were treated with graded concentrations of each compound for 72 hours and cell viability measured as above. For the evaluation of apoptotic induction, caspase activity was assessed using the Caspase-Glo 3/7 assay (Promega) according to manufacturer protocols. Twenty-four hours after plating, RT112 cells were treated with graded concentrations of ganetespib for 24 hours. Caspase-Glo was added to cells (50% v/v) and the plates incubated for 1 hour prior to luminescent detection.

[2] = system: KU-19-19 bladder cancer cell line; assay: CellTiter-Glo viability assay, KU-19-19; assay type: cell-based; settings: Homo sapiens, FGFR3 status WT, 72 hours, read-out: Ganetespib IC50
Procedure: as §1

[3] = system: RT112 bladder cancer cells; assay: Reverse phase protein array analysis in RT112 cells; assay type: cell-based; settings: 100 nM ganetespib, 24 hours
Procedure: RT112 cells were treated with dimethyl sulfoxide (DMSO, control) or 100 nM ganetespib for 24 hours. Lysates were prepared as recommended by MD Anderson Cancer Center (Houston, Tex.), arrayed on nitrocellulose-coated FAST slides (Whatman) and probed for a standard list of antibodies.

[4] = system: FGFR3-TAAC3 in RT112 cells; assay: Western blotting of FGFR3-TAAC3 and signaling proteins in RT112 cells; assay type: cell-based; settings: 200 nM ganetespib
Procedure: Following in vitro assays, tumor cells were disrupted in lysis buffer on ice for 10 minutes. Lysates were clarified by centrifugation and equal amounts of proteins resolved by SDS-PAGE before transfer to nitrocellulose membranes (Bio-Rad). Membranes were blocked with StartingBlock T20 blocking buffer (Thermo Scientific) and immunoblotted with the indicated antibodies. Antibody-antigen complexes were visualized using an Odyssey system (LI-COR).

[5] = system: RT112 xenografts; assay: RT112 xenograft tumor model; assay type: in vivo; settings: ganetespib 150 mg/kg i.v. once weekly, 3 weeks
Procedure: CD-1 nude mice (Charles River Laboratories, Wilmington, Mass.) at 7-12 weeks of age were maintained in a pathogen-free environment and all in vivo procedures were approved by the Synta Pharmaceuticals Corp. Institutional Animal Care and Use Committee. RT112 cells (5×10^6) were subcutaneously implanted into female mice and animals bearing established tumors (˜150 mm^3) were randomized into treatment groups of 8. Mice were i.v. dosed with ganetespib (150 mg/kg) once weekly or p.o. dosed with BGJ398 (10 mg/kg) daily, either alone or in combination, for 3 weeks. Tumor growth inhibition was monitored by tumor volume measurements twice weekly. As a measurement of in vivo efficacy, the % T/C value was determined from the change in average tumor volumes of each treated group relative to the vehicle treated animals. Statistical significance was determined using two-way ANOVA followed by Bonferroni post tests.

[6] = system: panel of eleven CRC-derived cell lines; assay: Proliferation assay in CRC-derived cell lines (Celigo confluence); assay type: cell-based; settings: Homo sapiens, 96 h; range across eleven CRC cell lines; four days; read-out: Drug concentrations that inhibited the growth rate by 50%
Procedure: Eleven cell lines derived from human colorectal cancers (CRC) were cultured in RPMI (Invitrogen, Darmstadt, Germany) supplemented with 10% FCS (ThermoScientific, Waltham Mass., USA), 2 mM L-glutamine and Penicillin-Streptomycin (Invitrogen). Cell-line cross-contaminatino was excluded using short tandem repeat profiling. Specific knockdown of target genes was performed using pre-designed Silencer Select siRNAs (s231075 and s231076, designated s75 and s76) or control siRNAs (scrambled, all from Ambion, Hamburg, Germany) with a final concentration of 5 nM. Overexpression was performed with pCMV-SPORT6 vector constructs. For both up- and downregulation, Lipofectamine 2000 (Invitrogen) was applied in a forward transfection protocol. Ganetespib (Synta Pharma, Lexington Mass., USA) and 17AAG (Calbiochem, Darmstadt, Germany) were dissolved in DMSO (50 mM and 5 mM stocks, respectively) and diluted to the indicated concentrations with culture medium.
For cell proliferation analysis, cells were seeded at 10^5 cells/well in 12-well plates 24 hours prior to treatment. […] Over the course of the 4-day treatment, cell confluence was measured by brightfield microscopy using a Celigo Adherent Cell Cytometer (Brooks, Chelmsford Mass., USA). Confluence was calculated with the Celigo software program.

[7] = system: SW1463 cells; assay: Cell viability assay, SW1463 colorectal cancer cells; settings: Homo sapiens, read-out: IC50 based on cell viability
Procedure: 24 hours after transfection, […] were seeded in triplicate in 96-well plates one day before treatment. Cells were treated with inhibitors and drugs for 48 hours and subjected to the CellTiterGlo Luminescent Cell Viability assay (Promega, Madison Wis., USA).

[8] = weekly dosing regimen; cited from earlier work

CC(C)c1cc(-c2n[nH]c(=O)n2-c2ccc3c(ccn3C)c2)c(O)cc1O [ganetespib]
pIC50 [1]: 7.57
pIC50 [2]: 7.44
Fold Change AKT ([3]; AKT signaling): −2.4 fold
Fold Change AKT (pS473) ([3]; AKT signaling): −2.5 fold
Fold Change GSK3-A/B ([3]; AKT signaling): −1.5 fold
Fold Change GSK3-A/B (pS2/S9) ([3]; AKT signaling): −1.8 fold
Fold Change PDK1 ([3]; AKT signaling): −1.4 fold
Fold Change PDK1 (pS241) ([3]; AKT signaling): −1.7 fold
Fold Change BIM ([3]; Apoptosis): +1.4 fold
Fold Change Caspase 7 (cleaved D198) ([3]; Apoptosis): +2.5 fold
Fold Change CDK1 ([3]; Cell cycle regulation): −1.4 fold
Fold Change Chk1 ([3]; Cell cycle regulation): −3.2 fold
Fold Change Cyclin B1 ([3]; Cell cycle regulation): −1.9 fold
Fold Change Rb (pS807/811) ([3]; Cell cycle regulation): −4.6 fold
Fold Change p21 ([3]; Cell cycle regulation): +1.4 fold
Fold Change p27 ([3]; Cell cycle regulation): +1.5 fold
Fold Change C-RAF ([3]; MAPK pathway): −1.8 fold
Fold Change MAPK (pT202/Y204) ([3]; MAPK pathway): −1.5 fold
Fold Change MEK1 (pS217/S221) ([3]; MAPK pathway): −1.4 fold
Fold Change P90RSK (pT359/S363) ([3]; MAPK pathway): −1.4 fold
Fold Change Src (pY527) ([3]; MAPK pathway): −1.4 fold
Fold Change EGFR ([3]; Receptor Tyrosine Kinases): −1.5 fold
Fold Change EGFR (pY1068) ([3]; Receptor Tyrosine Kinases): −1.9 fold
Fold Change HER2 ([3]; Receptor Tyrosine Kinases): −2.2 fold
Fold Change HER2 (pY1248) ([3]; Receptor Tyrosine Kinases): −2.2 fold
Fold Change HER3 ([3]; Receptor Tyrosine Kinases): −1.6 fold
Fold Change MET (pY1235) ([3]; Receptor Tyrosine Kinases): −2.7 fold
Fold Change HSP70/72 ([3]; Stress response): +3.0 fold
Fold Change HSP90 alpha ([3]; Stress response): +1.6 fold
Fold Change NF-κB p65 (pS536) ([3]; Transcription factors): −2.3 fold
Fold Change c-Myc ([3]; Transcription factors): −2.5 fold
Fold Change 4E-BP1 (pS65) ([3]; mTOR pathway): −2.5 fold
Fold Change P70S6K (pT389) ([3]; mTOR pathway): −4.7 fold
Fold Change PRAS40 (pT246) ([3]; mTOR pathway): −1.2 fold
Fold Change S6 (pS235/S236) ([3]; mTOR pathway): −13.2 fold
Fold Change S6 (pS240/S244) ([3]; mTOR pathway): −8.9 fold
Fold Change TSC1 ([3]; mTOR pathway): −1.3 fold
Fold Change Tuberin ([3]; mTOR pathway): −2.2 fold
Fold Change mTOR (pS2448) ([3]; mTOR pathway): −2.2 fold
time to destabilization of the FGFR3-TAAC3 fusion and alterations in downstream signaling [4]: ≤ 4 h
T/C value [5]: −23%
pIC50 [6]: 5.60 to 7.44
pIC50 [7]: 7.00
maximally tolerated dose [8]: 150 mg/kg
